From patent US20250314668A1, “DNAZYMES FOR SENSING AND IMAGING TARGET MOLECULES” (BOARD OF REGENTS, THE UNIVERSITY OF TEXAS SYSTEM, priority 2024, published 2025)
Substitutions are numbered along the chain they refer to. Entries after “also recorded” stand apart in the source; their conditions may differ. d = 2'-deoxy (DNA); m = 2'-O-methyl; r = 2'-OH (RNA)

What was measured:
[1] = system: HT1080 cells; test: Fe^2+ and Fe^3+ imaging in cells treated with SAS and Fer-1, with or without NCOA4 knock down; type: cell-based
Description: Ferroptosis is a Fe-related cell death. To understand how Fe^2+ and Fe^3+ have a role in this process, the cells were incubated with Sulfasalazine (SAS), which inhibits System Xc- and induces ferroptosis. Elevated Fe^2+ and Fe^3+ levels, as well as an elevated Fe^3+/Fe^2+ ratio over time, were observed when compared with nontreated controls. This elevation is inhibited by Ferrostatin-1 (Fer-1), an antioxidant that inhibits lipid peroxidation by scavenging alkoxyl radicals. […] This observation indicates the association between Fe levels and lipid peroxidation.
To understand how labile iron and iron redox changes are associated with cell ferroptosis, the study focused on the regulatory effects of NCOA4 on Fe^2+ and Fe^3+. NCOA4 is a key gene that regulates iron homeostasis through ferritinophagy, degrading iron storage protein, and releasing iron into the cell. To understand how NCOA4 influences Fe^2+ and Fe^3+, the study used the CRISPR/Cas technique to knock down NCOA4 expressions. As shown with the western blot, single guide RNAs knocked down the expression of NCOA4 in the HT1080 cells. In these cells, reduced Fe^2+ and Fe^3+ signals were detected as indicated by the DNAzyme sensors. In the meanwhile, the redox ratio of Fe^3+/Fe^2+ elevated, indicating the NCOA4 may not only regulate the labile iron amount but also the Fe redox states.
On the contrary, when inhibiting ferroptosis with Fer-1, reduced Fe^2+ and Fe^3+ levels were observed.

[2] = PAGE gel activity assays of Fe^2+ H5 DNAzyme (cleavage site, truncation, pH, mutation combinations, selectivity); type: biochemical; conditions: for cleavage by the original Fe^2+ H5 DNAzyme: presence of Fe^2+, anaerobic conditions; for relative activity of combined point mutations versus original: original FAM-labeled substrate, 100 μM FeCl2, 2 hours, room temperature
From the text: RNA Cleavage Dependence of Fe^2+ H5 and Fe^3+ B12 DNAzymes: To investigate the Fe^2+ H5 and Fe^3+ B12 DNAzymes, various cleavage site modifications were incorporated into the substrate strands. The original Fe^2+ H5 DNAzyme was combined with Fe^2+ H5 substrate strands containing either a 2′-hydroxyl (2′OH), 2′-hydrogen (2′H), or 2′O-methyl (2′OMe) at the cleavage site. The original Fe^2+ H5 DNAzyme cleaves the Fe^2+ H5 substrate strand containing 2′OH at the cleavage site in the presence of Fe^2+ under anaerobic conditions. […] Similarly, the original Fe^3+ B12 DNAzyme was combined with Fe^3+ B12 substrate strands containing either 2′OH, 2′H, or 2′OMe at the cleavage site. The original Fe^3+ B12 DNAzyme cleaves the Fe^3+ B12 substrate strand containing 2′OH at the cleavage site in the presence of Fe^3+. […] These findings highlight the critical role of the 2′OH group at the cleavage site in enabling DNAzyme activity for both Fe^2+ H5 and Fe^3+ B12 systems, as substitutions with 2′H or 2′OMe impede cleavage.
Truncations of Fe^2+ H5 and Fe^3+ B12 DNAzymes' Binding Arms: To further investigate the Fe^2+ H5 and Fe^3+ B12 DNAzymes, the DNAzymes were truncated at the 5′ and 3′ ends and tested using the FAM-labeled original substrate strand through activity assays assessed by PAGE gel. The activity of the Fe^2+ H5 DNAzyme with the original substrate strand remains relatively unchanged when 1 or 2 nucleotides are truncated from either the 3′ or 5′ end. […] The activity of the Fe^3+ B12 DNAzyme with the original substrate strand is maintained when 1 or 2 nucleotides are truncated from the […]. A notable reduction in relative intensity occurs when 3, 4, or 5 nucleotides are truncated from the 5′ end. Additionally, truncation of 1, 2, or 3 nucleotides from the 3′ end also results in a decrease in relative intensity.
pH Dependency of Fe^2+ H5 and Fe^3+ B12 DNAzymes: To further investigate the impact of reaction conditions on catalytic activity, the study evaluated the influence of pH system. For the Fe^2+ H5 DNAzyme, the study assessed cleavage efficiency across a pH range of 6.0 to 7.5 in MOPS, MES, Bis-Tris, or Tris under anaerobic conditions with 100 μM FeCl2.
Combination of Fe^2+ H5 DNAzyme strand Improvements: Given the enhanced activity observed with several point mutations in the Fe^2+ H5 DNAzyme strand, the study investigated whether combinations of these point mutations would further improve the DNAzyme's activity. The study designed 41 combinations of the 6-point mutations located at positions 39 (A39T and A39G), 40 (A40C), 51 (G51C), 52 (C52G), and 54 (T54C), along with the original Fe^2+ H5. Each sequence was tested with the original FAM-labeled Fe^2+ substrate strand in the presence of 100 μM FeCl2 for 2 hours at room temperature. […] Certain combinations of mutations enhance activity, while others diminish it, indicating interactions that are not merely additive. The specific positions of the mutations play a critical role in determining the overall activity, with some combinations inducing beneficial conformational changes and others disrupting key structural elements. These findings highlight the importance of understanding the contextual interplay of mutations for optimizing DNAzyme performance. The identified combinations that increase activity offer valuable insights for the future engineering of more efficient DNAzyme variants.
Combining Enhanced Fe^2+ H5 and Fe^3+ B12 DNAzymes Single Point Mutations: To assess the potential additive effects of combining enhanced Fe^2+ H5 DNAzyme strands with substrate strands, the study evaluated the relative intensities of point mutations within these strands. Reactions were conducted in a buffer solution containing 25 mM Bis-Tris, 200 mM NaCl at pH 6.5, with 250 nM each of the mutated H5 DNAzyme strand and the FAM-labeled mutated H5 substrate strand, and 100 μM FeCl2. […]

[3] = Point mutation gel cleavage assay of Fe^2+ H5 DNAzyme and substrate (heat map); type: biochemical; conditions: 100 μM FeCl2, pH 6.5, anaerobic, overnight; for activity of mutated substrate strand normalized to original Fe^2+ H5 Substrate: original DNAzyme strand; for activity of mutated DNAzyme strand normalized to original Fe^2+ H5 DNAzyme: FAM-labeled original substrate
Description: (§1) FIG. 7 depicts a heat map illustrating the impact of point mutations within the catalytic core of the Fe^2+ H5 DNAzyme, against the unaltered Fe^2+ H5 substrate strand for comparative analysis with 25 mM Bis Tris, 200 mM NaCl at pH 6.5 with 100 μM FeCl2 in anaerobic conditions. The reaction occurred overnight at room temperature and analyzed by polyacrylamide gel electrophoresis.
as §1, with “8” for “7”, “Substrate strand,” for “DNAzyme,”, “DNAzyme” for “substrate”
(§2) Point mutations were intentionally introduced into the Fe^2+ H5 DNAzyme, and subsequently assessed in comparison to the unaltered Fe^2+ H5 Substrate under controlled reaction conditions. These conditions include a solution containing 25 mM Bis Tris, 200 mM NaCl at pH 6.5, with concentrations set at 250 nM for both the mutated H5 DNAzyme Strand and the FAM-labeled Original H5 Substrate Strand, alongside 100 μM FeCl2. The reaction proceeded overnight at room temperature under anaerobic conditions, followed by analysis via electrophoresis on a 15% denaturing gel.
as §2, with “Fe^2+ H5 Substrate Strand, and subsequently” for “Fe^2+ H5 DNAzyme, and subsequently”, “Fe^2+ H5 DNAzyme under controlled” for “Fe^2+ H5 Substrate under controlled”, “both the Original H5 DNAzyme” for “both the mutated H5 DNAzyme”, “the FAM-labeled mutated H5 Substrate” for “the FAM-labeled Original H5 Substrate”

In the case of `CCOC(=O)c1ccc(NC2CCCCC2)c(N)c1` [Fer-1, Ferrostatin-1], the “effect of Fer-1 on the SAS-induced elevation of Fe levels” value ([1]; Fer-1 added to SAS-treated cells) is reported as “inhibited; also recorded: reduced”, the “Fe^2+ and Fe^3+ levels in control guide RNA cells” value [1] is reported as “reduced” and the “Fe^2+ and Fe^3+ levels compared with nontreated controls” value ([1]; over time) is reported as “slightly reduced”.

In the case of `O=C(O)c1cc(/N=N/c2ccc(S(=O)(=O)Nc3ccccn3)cc2)ccc1O` [SAS, Sulfasalazine], the “Fe^2+ and Fe^3+ levels in control guide RNA cells” value [1] is reported as “elevated”, the “Fe^2+ and Fe^3+ levels compared with nontreated controls” value ([1]; over time) is reported as “Elevated” and the “Fe^3+/Fe^2+ ratio compared with nontreated controls” value ([1]; over time) is reported as “elevated”. For the same molecule, the “increase in Fe^2+ and Fe^3+ levels in NCOA4 downregulated cells” value ([1]; similar treatments as control cells) was “smaller increase”.

For “Fe^2+ H5 Original Substrate (2′H) (CGGACCCGTATCAATCTCACGTATAGGATATCCA; DNA, backbone not given here)”, the “cleavage by the original Fe^2+ H5 DNAzyme” value [2] was “does not cleave”.

With “Fe^2+ H5 Original Substrate (2′OMe) (CGGACCCGTATCAATCTCACGTATAGGATATCCA; sugars from the 5' end d24 m1 d9, backbone not given here)” the “cleavage by the original Fe^2+ H5 DNAzyme” value [2] was “does not cleave”.

With “Fe^2+ H5 Substrate A13C (CGGACCCGTATCCATCTCACGTATAGGATATCCA; DNAzyme; sugars from the 5' end d24 r1 d9, backbone not given here; FAM-labeled in assays, further chemistry not fully specified)” the “activity of mutated substrate strand normalized to original Fe^2+ H5 Substrate” value [3] was “heightened activity”.

For “Fe^2+ H5 Substrate A14T (CGGACCCGTATCATTCTCACGTATAGGATATCCA; DNAzyme; sugars from the 5' end d24 r1 d9, backbone not given here; FAM-labeled in assays, further chemistry not fully specified)”, the “activity of mutated substrate strand normalized to original Fe^2+ H5 Substrate” value [3] was “heightened activity”.

For “Fe^2+ H5 Substrate T11C (CGGACCCGTACCAATCTCACGTATAGGATATCCA; DNAzyme; sugars from the 5' end d24 r1 d9, backbone not given here; FAM-labeled in assays, further chemistry not fully specified)”, the “activity of mutated substrate strand normalized to original Fe^2+ H5 Substrate” value [3] was “heightened activity”.

B1: Fe^2+ H5 DNAzyme A39T (nucleic acid)
chain: TGGATATCTCCTAGCCAGACTGTTATGTGTGATACGGCTAACTTCGTGATGCCTCTACGGGTCCG
modifications: DNA, backbone not given here
With B1 the “activity of mutated DNAzyme strand normalized to original Fe^2+ H5 DNAzyme” value [3] was “heightened activity”.

B2: Fe^2+ H5 DNAzyme Combo 30 (nucleic acid)
chain: B1 chain with T39G, A40C, T54C
modifications: DNA, backbone not given here
With B2 the “relative activity of combined point mutations versus original” value (shortened to “relative activity”) [2] was “increased the relative activity”.

B3: Fe^2+ H5 DNAzyme Combo 41 (nucleic acid)
chain: B1 chain with T39G, A40C, G51C, C52G, T54C
modifications: DNA, backbone not given here
In the case of B3, the “relative activity” value [2] is reported as “increased the relative activity”.

B4: Fe^2+ H5 DNAzyme T54C (nucleic acid)
chain: B1 chain with T39A, T54C
modifications: DNA, backbone not given here
With B4 the “activity of mutated DNAzyme strand normalized to original Fe^2+ H5 DNAzyme” value [3] was “heightened activity”.

B5: Fe^2+ H5 DNAzyme Combo 29 (nucleic acid)
chain: B1 chain with T39G, G51C, C52G
modifications: DNA, backbone not given here
In the case of B5, the “relative activity” value [2] is reported as “increased the relative activity”.

B6: Fe^2+ H5 DNAzyme Combo 31 (nucleic acid)
chain: B1 chain with T39G, A40C, G51C, C52G
modifications: DNA, backbone not given here
For B6, the “relative activity” value [2] was “decreased the relative activity”.

B7: Fe^2+ H5 DNAzyme C52G (nucleic acid)
chain: B1 chain with T39A, C52G
modifications: DNA, backbone not given here
For B7, the “activity of mutated DNAzyme strand normalized to original Fe^2+ H5 DNAzyme” value [3] was “heightened activity”.

B8: Fe^2+ H5 DNAzyme G51C (nucleic acid)
chain: B1 chain with T39A, G51C
modifications: DNA, backbone not given here
For B8, the “activity of mutated DNAzyme strand normalized to original Fe^2+ H5 DNAzyme” value [3] was “heightened activity”.

B9: Fe^2+ H5 DNAzyme A40C (nucleic acid)
chain: B1 chain with T39A, A40C
modifications: DNA, backbone not given here
In the case of B9, the “activity of mutated DNAzyme strand normalized to original Fe^2+ H5 DNAzyme” value [3] is reported as “heightened activity”.

B10: Fe^2+ H5 DNAzyme A39G (nucleic acid)
chain: B1 chain with T39G
modifications: DNA, backbone not given here
In the case of B10, the “activity of mutated DNAzyme strand normalized to original Fe^2+ H5 DNAzyme” value [3] is reported as “heightened activity”.
